# Experimental data taken from US20230085307A1, “PYRIDAZINONE COMPOUND AND HERBICIDE” (NISSAN CHEMICAL CORPORATION, priority 2019, published 2023).
# Experiments:
# late watergrass = test: Test Example 2: herbicidal activity, application during weed generation under submerged conditions (Table 17, symbol A); format: in vivo, late watergrass (Echinochloa oryzicola); details: AAH 320 g/ha; application during weed generation, submerged conditions
# In short: (§1)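 Alluvial soil in Wagner pots was flooded to 4 cm depth and sown with the three weeds together; pots were kept in a greenhouse at 25° C. to 30° C. At the one to two leaf stage, an emulsion formulation diluted in water to a set rate went onto the water surface; scored three weeks later.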
# Japanese bulrush = test: Test Example 2: herbicidal activity, application during weed generation under submerged conditions (Table 17, symbol B); format: in vivo, Japanese bulrush (Schoenoplectus juncoides); details: AAH 320 g/ha; application during weed generation, submerged conditions
# In short: as §1
# oval-leafed pondweed = test: Test Example 2: herbicidal activity, application during weed generation under submerged conditions (Table 17, symbol C); format: in vivo, oval-leafed pondweed (Monochoria vaginalis); details: AAH 320 g/ha; application during weed generation, submerged conditions
# In short: as §1
# barnyard grass [1] = test: Test Example 3: herbicidal effect by foliage application, Wagner pot (Table 18, symbol H); format: in vivo, barnyard grass (Echinochloa crus-galli); details: 320 g/ha
# In short: (§2)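 Plants were sown in alluvial soil held under 0.1–0.5 cm standing water and grown 14 days in a greenhouse at 25–30 °C. An emulsifiable formulation, water-diluted to the set dose, was then sprayed onto the foliage, and effects were scored three weeks later using previously defined criteria.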
# Chinese sprangletop = test: Test Example 3: herbicidal effect by foliage application, Wagner pot (Table 18, symbol D); format: in vivo, chinese sprangletop (Leptochloa chinensis); details: 320 g/ha
# In short: as §2
# rice flat sedge = test: Test Example 3: herbicidal effect by foliage application, Wagner pot (Table 18, symbol E); format: in vivo, rice flat sedge (Cyperus iria); details: 320 g/ha
# In short: as §2
# southern crabgrass [2] = test: Test Example 4: herbicidal effect by soil treatment (Table 19, symbol F); format: in vivo, southern crabgrass (Digitaria ciliaris); details: amount of applied herbicide 320 g/ha
# In short: (§3)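 In this soil treatment, the formulated compound reached the seeds only through the soil: seeds were buried about 1.5 cm deep in sterilized diluvial soil, then the diluted emulsion was sprayed over the surface. After three weeks at 25° C. to 30° C. in a greenhouse, effects were graded on criteria from an earlier test.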
# green foxtail [3] = test: Test Example 4: herbicidal effect by soil treatment (Table 19, symbol G); format: in vivo, green foxtail (Setaria viridis); details: amount of applied herbicide 320 g/ha
# In short: as §3
# barnyard grass [4] = test: Test Example 4: herbicidal effect by soil treatment (Table 19, symbol H); format: in vivo, barnyard grass (Echinochloa crus-galli); details: amount of applied herbicide 320 g/ha
# In short: as §3
# wild oat [5] = test: Test Example 4: herbicidal effect by soil treatment (Table 19, symbol I); format: in vivo, wild oat (Avena fatua); details: amount of applied herbicide 320 g/ha
# In short: as §3
# blackgrass [6] = test: Test Example 4: herbicidal effect by soil treatment (Table 19, symbol J); format: in vivo, blackgrass (Alopecurus myosuroides); details: amount of applied herbicide 320 g/ha
# In short: as §3
# Italian ryegrass [7] = test: Test Example 4: herbicidal effect by soil treatment (Table 19, symbol K); format: in vivo, Italian ryegrass (Lolium multiflorum); details: amount of applied herbicide 320 g/ha
# In short: as §3
# windgrass [8] = test: Test Example 4: herbicidal effect by soil treatment (Table 19, symbol L); format: in vivo, windgrass (Apera spica-venti); details: amount of applied herbicide 320 g/ha
# In short: as §3
# velvetleaf [9] = test: Test Example 4: herbicidal effect by soil treatment (Table 19, symbol M); format: in vivo, velvetleaf (Abutilon theophrasti); details: amount of applied herbicide 320 g/ha
# In short: as §3
# redroot pigweed [10] = test: Test Example 4: herbicidal effect by soil treatment (Table 19, symbol N); format: in vivo, redroot pigweed (Amaranthus retroflexus); details: amount of applied herbicide 320 g/ha
# In short: as §3
# lambsquarters [11] = test: Test Example 4: herbicidal effect by soil treatment (Table 19, symbol O); format: in vivo, lambsquarters (Chenopodium album); details: amount of applied herbicide 320 g/ha
# In short: as §3
# chickweed [12] = test: Test Example 4: herbicidal effect by soil treatment (Table 19, symbol P); format: in vivo, common chickweed (Stellaria media); details: amount of applied herbicide 320 g/ha
# In short: as §3
# false cleavers [13] = test: Test Example 4: herbicidal effect by soil treatment (Table 19, symbol Q); format: in vivo, false cleavers (Galium spurium); details: amount of applied herbicide 320 g/ha
# In short: as §3
# persian speedwell [14] = test: Test Example 4: herbicidal effect by soil treatment (Table 19, symbol R); format: in vivo, Persian speedwell (Veronica persica); details: amount of applied herbicide 320 g/ha
# In short: as §3
# southern crabgrass [15] = test: Test Example 5: herbicidal effect by foliage application, plastic box (Table 20, symbol F); format: in vivo, southern crabgrass (Digitaria ciliaris); details: foliage application, 320 g/ha, evaluated three weeks after application
# In short: (§4)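 Plants were sown into sterilized diluvial soil under about 1.5 cm cover and kept in a greenhouse at 25° C. to 30° C. Fourteen days on, foliage received an even spray of the diluted emulsion. Herbicidal or crop effect was judged three weeks afterwards.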
# green foxtail [16] = test: Test Example 5: herbicidal effect by foliage application, plastic box (Table 20, symbol G); format: in vivo, green foxtail (Setaria viridis); details: foliage application, 320 g/ha, evaluated three weeks after application
# In short: as §4
# barnyard grass [17] = test: Test Example 5: herbicidal effect by foliage application, plastic box (Table 20, symbol H); format: in vivo, barnyard grass (Echinochloa crus-galli); details: foliage application, 320 g/ha, evaluated three weeks after application
# In short: as §4
# wild oat [18] = test: Test Example 5: herbicidal effect by foliage application, plastic box (Table 20, symbol I); format: in vivo, wild oat (Avena fatua); details: foliage application, 320 g/ha, evaluated three weeks after application
# In short: as §4
# blackgrass [19] = test: Test Example 5: herbicidal effect by foliage application, plastic box (Table 20, symbol J); format: in vivo, blackgrass (Alopecurus myosuroides); details: foliage application, 320 g/ha, evaluated three weeks after application
# In short: as §4
# Italian ryegrass [20] = test: Test Example 5: herbicidal effect by foliage application, plastic box (Table 20, symbol K); format: in vivo, Italian ryegrass (Lolium multiflorum); details: foliage application, 320 g/ha, evaluated three weeks after application
# In short: as §4
# windgrass [21] = test: Test Example 5: herbicidal effect by foliage application, plastic box (Table 20, symbol L); format: in vivo, windgrass (Apera spica-venti); details: foliage application, 320 g/ha, evaluated three weeks after application
# In short: as §4
# velvetleaf [22] = test: Test Example 5: herbicidal effect by foliage application, plastic box (Table 20, symbol M); format: in vivo, velvetleaf (Abutilon theophrasti); details: foliage application, 320 g/ha, evaluated three weeks after application
# In short: as §4
# redroot pigweed [23] = test: Test Example 5: herbicidal effect by foliage application, plastic box (Table 20, symbol N); format: in vivo, redroot pigweed (Amaranthus retroflexus); details: foliage application, 320 g/ha, evaluated three weeks after application
# In short: as §4
# lambsquarters [24] = test: Test Example 5: herbicidal effect by foliage application, plastic box (Table 20, symbol O); format: in vivo, lambsquarters (Chenopodium album); details: foliage application, 320 g/ha, evaluated three weeks after application
# In short: as §4
# chickweed [25] = test: Test Example 5: herbicidal effect by foliage application, plastic box (Table 20, symbol P); format: in vivo, common chickweed (Stellaria media); details: foliage application, 320 g/ha, evaluated three weeks after application
# In short: as §4
# false cleavers [26] = test: Test Example 5: herbicidal effect by foliage application, plastic box (Table 20, symbol Q); format: in vivo, false cleavers (Galium spurium); details: foliage application, 320 g/ha, evaluated three weeks after application
# In short: as §4
# persian speedwell [27] = test: Test Example 5: herbicidal effect by foliage application, plastic box (Table 20, symbol R); format: in vivo, Persian speedwell (Veronica persica); details: foliage application, 320 g/ha, evaluated three weeks after application
# In short: as §4
structure (smiles),measurement,setting,value
CCCC(=O)Oc1c(C)nn(C)c(=O)c1-c1c(-c2ccc(OC(C)C)cc2)sc2ccc(Cl)cc12 [2-108],"herbicidal effect rating, A: late watergrass",late watergrass,3 (Herbicidal rate of 40% or more and less than 70%)
same,"herbicidal effect rating, B: Japanese bulrush",Japanese bulrush,0 (Herbicidal rate of 5% or less (almost no effect))
same,"herbicidal effect rating, C: oval-leafed pondweed",oval-leafed pondweed,0 (Herbicidal rate of 5% or less (almost no effect))
same,"herbicidal effect on H (barnyard grass), rating 0-5",barnyard grass [1],4 (Herbicidal rate of 70% or more and less than 90%)
same,"herbicidal effect on D (Chinese sprangletop), rating 0-5",Chinese sprangletop,0 (Herbicidal rate of 5% or less (almost no effect))
same,"herbicidal effect on E (rice flat sedge), rating 0-5",rice flat sedge,2 (Herbicidal rate of 20% or more and less than 40%)
same,"F: southern crabgrass, herbicidal effect rating",southern crabgrass [2],0 (Herbicidal rate of 5% or less (almost no effect))
same,"G: green foxtail, herbicidal effect rating",green foxtail [3],0 (Herbicidal rate of 5% or less (almost no effect))
same,"H: barnyard grass, herbicidal effect rating",barnyard grass [4],0 (Herbicidal rate of 5% or less (almost no effect))
same,"I: wild oat, herbicidal effect rating",wild oat [5],0 (Herbicidal rate of 5% or less (almost no effect))
same,"J: blackgrass, herbicidal effect rating",blackgrass [6],0 (Herbicidal rate of 5% or less (almost no effect))
same,"K: Italian ryegrass, herbicidal effect rating",Italian ryegrass [7],0 (Herbicidal rate of 5% or less (almost no effect))
same,"L: windgrass, herbicidal effect rating",windgrass [8],0 (Herbicidal rate of 5% or less (almost no effect))
same,"M: velvetleaf, herbicidal effect rating",velvetleaf [9],0 (Herbicidal rate of 5% or less (almost no effect))
same,"N: redroot pigweed, herbicidal effect rating",redroot pigweed [10],0 (Herbicidal rate of 5% or less (almost no effect))
same,"O: lambsquarters, herbicidal effect rating",lambsquarters [11],0 (Herbicidal rate of 5% or less (almost no effect))
same,"P: chickweed, herbicidal effect rating",chickweed [12],0 (Herbicidal rate of 5% or less (almost no effect))
same,"Q: false cleavers, herbicidal effect rating",false cleavers [13],0 (Herbicidal rate of 5% or less (almost no effect))
same,"R: persian speedwell, herbicidal effect rating",persian speedwell [14],4 (Herbicidal rate of 70% or more and less than 90%)
same,herbicidal effect on F: southern crabgrass,southern crabgrass [15],0 (Herbicidal rate of 5% or less (almost no effect))
same,herbicidal effect on G: green foxtail,green foxtail [16],0 (Herbicidal rate of 5% or less (almost no effect))
same,herbicidal effect on H: barnyard grass,barnyard grass [17],0 (Herbicidal rate of 5% or less (almost no effect))
same,herbicidal effect on I: wild oat,wild oat [18],0 (Herbicidal rate of 5% or less (almost no effect))
same,herbicidal effect on J: blackgrass,blackgrass [19],0 (Herbicidal rate of 5% or less (almost no effect))
same,herbicidal effect on K: Italian ryegrass,Italian ryegrass [20],0 (Herbicidal rate of 5% or less (almost no effect))
same,herbicidal effect on L: windgrass,windgrass [21],0 (Herbicidal rate of 5% or less (almost no effect))
same,herbicidal effect on M: velvetleaf,velvetleaf [22],2 (Herbicidal rate of 20% or more and less than 40%)
same,herbicidal effect on N: redroot pigweed,redroot pigweed [23],3 (Herbicidal rate of 40% or more and less than 70%)
same,herbicidal effect on O: lambsquarters,lambsquarters [24],1 (Herbicidal rate of 5% or more and less than 20%)
same,herbicidal effect on P: chickweed,chickweed [25],4 (Herbicidal rate of 70% or more and less than 90%)
same,herbicidal effect on Q: false cleavers,false cleavers [26],0 (Herbicidal rate of 5% or less (almost no effect))
same,herbicidal effect on R: persian speedwell,persian speedwell [27],5 (Herbicidal rate of 90% or more (almost completely withered))
